From BindingDB's records for patent US12391660 (Hangzhou Westan Pharmaceutical Technology Co., 2025)
pIC50: −log10 of the molar value.

Target: Transient receptor potential cation channel subfamily A member 1 (Homo sapiens, UniProt O75762)
Test: FLIPR Assay of Inhibitory Activity on Human TRPA1
Protocol: Table 3.1: The cell analysis plate was placed in an FLIPR instrument ([…]), and the compound in the compound plate was added to the corresponding hole on the cell analysis plate (First addition) via an automatic program, and the calcium ion fluorescence signal was recorded to determine whether the compound had agonistic activity. After 10 minutes, CaCl2 (Second addition) was added a final concentration of 3 mM to each well to stimulate intracellular calcium flux signals. Ca++-dependent fluorescence signal was monitored continuously at 538 nm wavelength to analyze the inhibitory activity of the compounds.

Chain of Transient receptor potential cation channel subfamily A member 1 (O75762 whole entry): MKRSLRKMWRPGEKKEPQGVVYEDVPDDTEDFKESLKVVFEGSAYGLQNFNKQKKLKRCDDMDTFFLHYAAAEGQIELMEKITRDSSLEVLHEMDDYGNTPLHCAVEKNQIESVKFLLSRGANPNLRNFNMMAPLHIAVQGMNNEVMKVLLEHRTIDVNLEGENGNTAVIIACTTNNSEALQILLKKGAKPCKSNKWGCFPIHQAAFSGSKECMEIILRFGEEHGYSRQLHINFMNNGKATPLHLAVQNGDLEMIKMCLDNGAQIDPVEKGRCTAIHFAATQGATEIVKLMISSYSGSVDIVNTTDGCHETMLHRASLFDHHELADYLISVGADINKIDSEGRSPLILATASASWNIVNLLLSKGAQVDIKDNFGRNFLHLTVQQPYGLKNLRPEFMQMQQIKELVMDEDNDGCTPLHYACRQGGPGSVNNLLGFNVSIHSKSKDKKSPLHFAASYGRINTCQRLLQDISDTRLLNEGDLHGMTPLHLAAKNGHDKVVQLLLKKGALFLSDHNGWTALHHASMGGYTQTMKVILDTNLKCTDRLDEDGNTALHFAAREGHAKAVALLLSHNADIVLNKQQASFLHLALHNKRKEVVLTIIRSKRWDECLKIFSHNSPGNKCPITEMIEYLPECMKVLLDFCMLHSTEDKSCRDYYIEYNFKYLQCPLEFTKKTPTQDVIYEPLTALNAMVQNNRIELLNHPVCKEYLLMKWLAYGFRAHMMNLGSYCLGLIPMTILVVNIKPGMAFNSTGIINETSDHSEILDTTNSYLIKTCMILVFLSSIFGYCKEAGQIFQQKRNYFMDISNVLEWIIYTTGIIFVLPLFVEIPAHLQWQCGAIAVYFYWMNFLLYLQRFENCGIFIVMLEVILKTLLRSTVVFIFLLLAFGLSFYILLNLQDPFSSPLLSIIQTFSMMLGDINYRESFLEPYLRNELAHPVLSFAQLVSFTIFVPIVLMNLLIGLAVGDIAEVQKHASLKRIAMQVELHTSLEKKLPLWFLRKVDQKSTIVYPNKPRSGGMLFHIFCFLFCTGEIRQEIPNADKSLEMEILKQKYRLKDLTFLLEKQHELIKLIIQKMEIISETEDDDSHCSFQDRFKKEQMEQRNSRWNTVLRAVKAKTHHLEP

| pIC50 | Compound |
| --- | --- |
| 5.54 | Cn1cc(OC2(C(=O)N3CCN(c4ccc(C(F)(F)F)cn4)CC3)CCCC2)nc1C#N [US12391660, Compound 61] |
| 7.25 | O=C(N1CCN(c2cccc(C(F)(F)F)n2)CC1)C1(Nc2ccc(Cl)cc2)CCCC1 [US12391660, Compound 20] |
| 6.06 | O=C(N1CCN(c2ccc(C(F)(F)F)nn2)CC1)C1(Nc2ccc([N+](=O)[O-])cc2)CCCC1 [US12391660, Compound 21] |
| 6.55 | CN(c1ccc(C#N)cc1)C1(C(=O)N2CCC(C(C)(C)C)CC2)CCCC1 [US12391660, Compound 44] |
